Assay results: patent publication US12404269B2, “Aminoquinazolinone and aminoisoquinolinone derivatives and application thereof” (ZHEJIANG UNIVERSITY, priority 2018, dated 2025)
pIC50: −log10 of the molar value. Like-named read-outs stand apart in the source and are kept apart here.

Assays:
PI3Kα = molecular target: T1, PI3Kα (Homo sapiens, UniProt P42336); assay: PI3Kα molecular activity test (ADP-GLO); type: biochemical; details: for Selectivity (PI3Kδ IC50/PI3KαIC50): PI3Kδ IC50/PI3Kα IC50; for pIC50: recombinant protein, 100 μM ATP, 2 hours at room temperature
T1 construct: purchased Carna Bioscience
Method: (§1) Instrument: ELISA Reader Envision™ (PerkinElmer, USA)
(§2) Materials: Human recombinant PI3K and PI3Kδ proteins, purchased from Carna Bioscience; ADP-GLO kit, purchased from Promega.
(§3) Take the PI3Kα Molecular Activity Test as an Example to Describe the Text Method of the PI3K Subtypes
(§4) PI3K-α recombinant protein and substrate ATP were diluted with kinase reaction buffer (50 mM Tris-HCl, pH 7.4, 2.1 mM DTT, 0.05% Tween-20, 10 mM MgCl2). […] The specific reaction system was 2% of DMSO, 0.8 ng/μL PI3K-α, and 100 μM ATP, the positive compound control groups and control wells were set, and there were 3 multiple-wells for each concentration of each sample. After incubating for 2 hours at room temperature, ADP-GLO Reagent and Kinase Detection Reagent were added respectively, and then Envision™ was used to detect the […] readings. The activity rate of the samples were calculated by the sample readings, and the calculation formula was: activity rate=(ODcompound−ODcontrol)/(ODDMSO−ODcontro) ×100%.

PI3Kδ = molecular target: T2, PI3Kδ (Homo sapiens, UniProt O00329); assay: PI3Kδ molecular activity test (ADP-GLO); type: biochemical; details: recombinant protein
T2 construct: purchased Carna Bioscience
Method: as §1, §2, §3, §4

MCF7 (PIK3CA mut) = assay: Tumor cell proliferation, CCK8 method, MCF7; type: cell-based, human; details: Homo sapiens
Method: (§5) The IC50 value was calculated using Graphpad Prism V5.0 software.

KPL4 (PIK3CA mut) = assay: Tumor cell proliferation, CCK8 method, KPL4; type: cell-based
Method: as §5

SW48 (PIK3CA mut) = assay: Tumor cell proliferation, CCK8 method, SW48; type: cell-based; details: Homo sapiens
Method: as §5

ZR-75-1 (PTEN loss) = assay: Tumor cell proliferation, CCK8 method, ZR-75-1; type: cell-based; details: Homo sapiens; CCK8, ZR-75-1
Method: as §5

[1] = Pharmacokinetic determination in SD rats, tail vein injection; type: in vivo; details: rat, plasma; male SD rats, intravenous, 1 mg/kg
Method: Healthy SD rats weighing 200±20 g, male, were randomly divided into groups with 6 rats in each group, and were administered by tail vein injection at a dose of 1 mg/kg. The blood sampling time points for pharmacokinetic analysis: 5 min, 15 min, 30 min, 2 h, 4 h, 6 h, 8 h, 24 h, and 48 h after administration. About 0.3 mL of whole blood was collected via the orbit and placed in a heparinized test tube, centrifugalized at 6000 rpm for 10 min to separate the plasma, and store at −80° C. for testing. The plasma concentrations of the each compounds were detected with an Agilent liquid mass spectrometry (LC-MS/MS, Agilent Jet Stream Electrometric spray ion), and the relevant pharmacokinetic parameters were calculated using the WinNonLin 7.0 pharmacokinetic software non-compartment model method.

Kasumi-1 cell line = assay: In vivo efficacy, Kasumi-1 subcutaneous transplanted tumor in nude mice; details: 10 mg/Kg qd for 21 days, Kasumi-1 tumor, female nude mice, FIG. 1
Method: Female nude mice, weighing 20±3 g, were inoculated subcutaneously with Kasumi-1 cell line in their right axilla. The cell inoculation accounted for 1×10^7/mouse. After tumor formation, the diameter of the transplanted tumor was measured with a vernier caliper. When the tumor grown to 100-300 mm^3, the animals were divided into a model control group and administration groups with 6 […] in each group depending on body weight and tumor volume. The model control group was given the same amount of blank solvent. After grouping, the drugs were administered daily (qd) with a doge of 10 mg/Kg for 21 consecutive days. During the experiment, the diameter of the transplanted tumor and the weight of the mice were measured twice a week. The calculation formula of the tumor volume (TV) was: TV=½×a×b^2, where a and b represented length and width respectively. The relative tumor volume (RTV) was calculated from the measurement results, the calculation formula was: RTV=Vt/V0, where V0 was the tumor volume measured as grouping and administering (i.e. d0), and Vt was the tumor volume at each measurement. The evaluation index of anti-tumor activity was the relative tumor proliferation rate T/C(%), and the calculation formula was as follows: T/C(%)=(TRTV/CRTV)×100%, where TRTV: RTV of the treatment group; and CRTV: RTV of the negative control group.

[2] = background; cited from earlier work
[3] = CLL patients, background; cited from earlier work
[4] = CCK8, MCF7, read-out: MCF7 (PIK3CA mut) proliferation IC50
[5] = CCK8, KPL4, read-out: KPL4 (PIK3CA mut) proliferation IC50
[6] = CCK8, SW48, read-out: SW48 (PIK3CA mut) proliferation IC50

T1 sequence (P42336 whole entry): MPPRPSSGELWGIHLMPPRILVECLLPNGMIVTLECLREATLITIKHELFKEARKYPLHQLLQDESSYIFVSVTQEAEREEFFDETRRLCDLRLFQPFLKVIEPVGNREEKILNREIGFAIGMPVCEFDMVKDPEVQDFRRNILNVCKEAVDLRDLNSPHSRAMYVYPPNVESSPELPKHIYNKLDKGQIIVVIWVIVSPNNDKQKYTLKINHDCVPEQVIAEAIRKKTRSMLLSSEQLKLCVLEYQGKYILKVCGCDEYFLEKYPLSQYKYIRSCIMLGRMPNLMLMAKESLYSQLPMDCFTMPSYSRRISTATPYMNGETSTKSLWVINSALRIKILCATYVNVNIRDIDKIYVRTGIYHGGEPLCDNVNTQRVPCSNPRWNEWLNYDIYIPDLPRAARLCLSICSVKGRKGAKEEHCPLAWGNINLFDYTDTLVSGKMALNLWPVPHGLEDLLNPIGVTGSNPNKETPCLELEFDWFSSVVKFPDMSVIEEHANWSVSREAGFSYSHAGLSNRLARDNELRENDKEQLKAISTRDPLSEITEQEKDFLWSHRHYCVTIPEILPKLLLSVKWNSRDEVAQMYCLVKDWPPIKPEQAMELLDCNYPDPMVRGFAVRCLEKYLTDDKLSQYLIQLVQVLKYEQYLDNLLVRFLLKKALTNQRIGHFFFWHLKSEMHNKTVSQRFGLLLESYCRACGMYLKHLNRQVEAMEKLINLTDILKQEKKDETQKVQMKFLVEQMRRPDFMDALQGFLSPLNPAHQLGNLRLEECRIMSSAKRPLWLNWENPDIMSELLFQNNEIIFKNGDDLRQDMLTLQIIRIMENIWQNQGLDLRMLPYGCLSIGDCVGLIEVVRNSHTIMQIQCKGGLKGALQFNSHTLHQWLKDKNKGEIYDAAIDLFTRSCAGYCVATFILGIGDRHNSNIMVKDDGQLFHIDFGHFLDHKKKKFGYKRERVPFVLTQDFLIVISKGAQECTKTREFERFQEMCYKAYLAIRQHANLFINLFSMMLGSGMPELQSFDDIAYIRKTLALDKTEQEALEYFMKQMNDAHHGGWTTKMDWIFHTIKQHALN
T1 sequence (P27986 whole entry partner): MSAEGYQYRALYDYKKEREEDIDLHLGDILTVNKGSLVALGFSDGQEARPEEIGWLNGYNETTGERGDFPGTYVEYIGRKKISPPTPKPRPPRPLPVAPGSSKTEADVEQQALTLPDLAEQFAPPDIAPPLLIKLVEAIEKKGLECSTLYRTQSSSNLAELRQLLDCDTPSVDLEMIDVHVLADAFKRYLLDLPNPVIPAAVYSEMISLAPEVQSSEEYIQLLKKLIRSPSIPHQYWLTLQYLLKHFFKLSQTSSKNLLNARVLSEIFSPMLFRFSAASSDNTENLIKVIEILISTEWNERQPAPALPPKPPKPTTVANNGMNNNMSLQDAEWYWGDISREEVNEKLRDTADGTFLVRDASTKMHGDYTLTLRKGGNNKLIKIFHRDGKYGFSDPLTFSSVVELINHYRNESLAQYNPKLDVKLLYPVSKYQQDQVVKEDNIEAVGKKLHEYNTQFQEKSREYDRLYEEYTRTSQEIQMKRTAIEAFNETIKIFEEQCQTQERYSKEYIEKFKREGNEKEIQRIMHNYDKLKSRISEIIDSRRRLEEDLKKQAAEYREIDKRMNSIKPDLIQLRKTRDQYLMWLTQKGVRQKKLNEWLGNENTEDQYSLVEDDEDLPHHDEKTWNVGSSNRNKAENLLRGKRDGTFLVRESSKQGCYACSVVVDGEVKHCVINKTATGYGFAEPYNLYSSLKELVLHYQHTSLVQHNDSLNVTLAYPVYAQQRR
T2 sequence (O00329 whole entry): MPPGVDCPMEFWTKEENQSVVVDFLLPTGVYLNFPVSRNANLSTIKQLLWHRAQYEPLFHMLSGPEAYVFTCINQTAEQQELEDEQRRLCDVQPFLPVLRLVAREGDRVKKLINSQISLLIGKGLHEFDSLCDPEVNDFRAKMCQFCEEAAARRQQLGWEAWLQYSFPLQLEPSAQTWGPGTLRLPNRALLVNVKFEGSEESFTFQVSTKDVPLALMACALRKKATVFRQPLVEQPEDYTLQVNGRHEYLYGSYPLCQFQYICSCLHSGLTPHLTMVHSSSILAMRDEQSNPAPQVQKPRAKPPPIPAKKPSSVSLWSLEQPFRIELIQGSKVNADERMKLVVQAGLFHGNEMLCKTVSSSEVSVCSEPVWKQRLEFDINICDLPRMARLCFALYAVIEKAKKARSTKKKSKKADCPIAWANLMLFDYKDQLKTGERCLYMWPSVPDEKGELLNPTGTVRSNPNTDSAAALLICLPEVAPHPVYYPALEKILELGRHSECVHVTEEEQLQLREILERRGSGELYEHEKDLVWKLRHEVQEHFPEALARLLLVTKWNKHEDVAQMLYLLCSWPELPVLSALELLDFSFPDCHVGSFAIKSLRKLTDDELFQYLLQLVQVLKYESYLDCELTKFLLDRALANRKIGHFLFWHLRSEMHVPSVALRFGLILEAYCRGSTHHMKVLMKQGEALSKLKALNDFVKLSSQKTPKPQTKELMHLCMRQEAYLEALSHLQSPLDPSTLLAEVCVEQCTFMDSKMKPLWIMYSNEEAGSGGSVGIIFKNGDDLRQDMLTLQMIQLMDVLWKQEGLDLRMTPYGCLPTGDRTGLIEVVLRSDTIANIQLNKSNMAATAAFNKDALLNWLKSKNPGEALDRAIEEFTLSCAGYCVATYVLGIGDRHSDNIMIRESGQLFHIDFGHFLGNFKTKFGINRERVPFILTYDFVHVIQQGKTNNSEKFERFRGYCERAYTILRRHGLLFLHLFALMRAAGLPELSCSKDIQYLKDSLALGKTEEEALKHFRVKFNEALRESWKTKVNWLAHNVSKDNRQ
T2 sequence (P27986 whole entry partner): as the sequence (P27986 whole entry partner) above

With COc1c(OCCCN2CCOCC2)ccc2c(=O)n(C)c(NC(=O)c3cnc(N)nc3)nc12 [8a-1] the “Selectivity (PI3Kδ IC50/PI3KαIC50)” value (PI3Kα) was “II (“II” represents 5-10 times)”, the pIC50 (PI3Kα) was > 7.70 and the pIC50 (PI3Kδ) was > 7.70. The pIC50 (MCF7 (PIK3CA mut); [4]) was > 7.70, the pIC50 (KPL4 (PIK3CA mut); [5]) was > 7.70 and the pIC50 (SW48 (PIK3CA mut); [6]) was > 7.70. For the same molecule, the pIC50 (ZR-75-1 (PTEN loss)) was > 7.70, the Vd [1] was 4.2 L/kg and the clearance [1] was 33.3 mL/min/kg. The half-life [1] was 5.3 h.
In the case of COc1c(OCC(N)=O)ccc2c(=O)n(C)c(NC(=O)c3cnc(N)nc3)nc12 [8a-2], the “Selectivity (PI3Kδ IC50/PI3KαIC50)” value (PI3Kα) was “III (“III” represents >10 times)”, the pIC50 (PI3Kα) was > 7.70 and the pIC50 (PI3Kδ) was > 7.70. For the same molecule, the pIC50 (MCF7 (PIK3CA mut); [4]) was > 7.70, the pIC50 (KPL4 (PIK3CA mut); [5]) was > 7.70 and the pIC50 (SW48 (PIK3CA mut); [6]) was > 7.70. For the same molecule, the pIC50 (ZR-75-1 (PTEN loss)) was > 7.70, the Vd [1] was 3.2 L/kg and the clearance [1] was 30 mL/min/kg. For the same molecule, the half-life [1] was 4.9 h.
With COc1c(OC[C@@H](O)CN2CCOCC2)ccc2c(=O)n(C)c(NC(=O)c3cnc(N)nc3)nc12 [8a-27, (S)-2-amino-N-(7-(2-hydroxy-3-morpholinopropoxy)-8-methoxy-3-methyl-4-oxo-3,4-dihydroquinazolin-2-yl) pyrimidine-5-carboxamide] the “Selectivity (PI3Kδ IC50/PI3KαIC50)” value (PI3Kα) was “II (“II” represents 5-10 times)”, the pIC50 (PI3Kα) was > 7.70 and the pIC50 (PI3Kδ) was 6.70 to 7.70. For the same molecule, the pIC50 (MCF7 (PIK3CA mut); [4]) was > 7.70, the pIC50 (KPL4 (PIK3CA mut); [5]) was 6.70 to 7.70 and the pIC50 (SW48 (PIK3CA mut); [6]) was 6.70 to 7.70. The pIC50 (ZR-75-1 (PTEN loss)) was 6.00 to 6.70 and the “tumor growth inhibitory activity” value (Kasumi-1 cell line) was “strong tumor growth inhibitory activity”.
With COc1c(OC[C@H](O)CN2CCOCC2)ccc2c(=O)n(C)c(NC(=O)c3cnc(N)nc3)nc12 [8a-28, (R)-2-amino-N-(7-(2-hydroxy-3-morpholinopropoxy)-8-methoxy-3-methyl-4-oxo-3,4-dihydroquinazolin-2-yl) pyrimidine-5-carboxamide] the “Selectivity (PI3Kδ IC50/PI3KαIC50)” value (PI3Kα) was “II (“II” represents 5-10 times)”, the pIC50 (PI3Kα) was > 7.70 and the pIC50 (PI3Kδ) was 6.70 to 7.70. For the same molecule, the pIC50 (MCF7 (PIK3CA mut); [4]) was > 7.70, the pIC50 (KPL4 (PIK3CA mut); [5]) was 6.70 to 7.70 and the pIC50 (SW48 (PIK3CA mut); [6]) was 6.70 to 7.70. For the same molecule, the pIC50 (ZR-75-1 (PTEN loss)) was 6.00 to 6.70 and the “tumor growth inhibitory activity” value (Kasumi-1 cell line) was “strong tumor growth inhibitory activity”.
With COc1c(OCCC(N)=O)ccc2c(=O)n(C)c(NC(=O)c3cnc(N)nc3)cc12 [8a′-3] the “Selectivity (PI3Kδ IC50/PI3KαIC50)” value (PI3Kα) was “III (“III” represents >10 times)”, the pIC50 (PI3Kα) was > 7.70 and the pIC50 (PI3Kδ) was 6.70 to 7.70. It also gave a Vd [1] of 2.9 L/kg, a clearance [1] of 41.7 mL/min/kg and a half-life [1] of 6.7 h.
In the case of CCn1c(NC(=O)c2cnc(N)nc2)nc2c(OC)c(OCCCN3CCOCC3)ccc2c1=O [8b-1], the pIC50 (MCF7 (PIK3CA mut); [4]) was > 7.70, the pIC50 (KPL4 (PIK3CA mut); [5]) was > 7.70 and the pIC50 (SW48 (PIK3CA mut); [6]) was > 7.70. The pIC50 (ZR-75-1 (PTEN loss)) was > 7.70, the Vd [1] was 3.8 L/kg and the clearance [1] was 31.7 mL/min/kg. The half-life [1] was 5.2 h.
With CCn1c(NC(=O)c2cnc(N)nc2)nc2c(OC)c(OCCCC(N)=O)ccc2c1=O [8b-9] the “Selectivity (PI3Kδ IC50/PI3KαIC50)” value (PI3Kα) was “III (“III” represents >10 times)”, the pIC50 (PI3Kα) was > 7.70 and the pIC50 (PI3Kδ) was 6.70 to 7.70. It also gave a Vd [1] of 3.9 L/kg, a clearance [1] of 26.7 mL/min/kg and a half-life [1] of 4.2 h.
With CCn1c(NC(=O)c2cnc(N)nc2)nc2c3c(ccc2c1=O)OCCCO3 [14b-3] the Vd [1] was 2.4 L/kg, the clearance [1] was 38.3 mL/min/kg and the half-life [1] was 4.7 h.
For CCn1c(NC(=O)c2cnc(N)nc2)nc2c3c(ccc2c1=O)OCCOCCOCCOCCO3 [14b-11], the “Selectivity (PI3Kδ IC50/PI3KαIC50)” value (PI3Kα) was “I (“I” represents <5 times)”, the pIC50 (PI3Kα) was 6.70 to 7.70 and the pIC50 (PI3Kδ) was 6.70 to 7.70. For the same molecule, the pIC50 (MCF7 (PIK3CA mut); [4]) was > 7.70, the pIC50 (KPL4 (PIK3CA mut); [5]) was 6.70 to 7.70 and the pIC50 (SW48 (PIK3CA mut); [6]) was 6.00 to 6.70. The pIC50 (ZR-75-1 (PTEN loss)) was 6.00 to 6.70.
CCn1c(NC(=O)c2cnc(N)nc2)cc2c3c(ccc2c1=O)OCO3 [14b′-1] showed a Vd [1] of 3.9 L/kg, a clearance [1] of 65 mL/min/kg and a half-life [1] of 4.2 h.
With CCn1c(NC(=O)c2cnc(N)nc2)cc2c3c(ccc2c1=O)OCCOCCOCCO3 [14b′-6] the “Selectivity (PI3Kδ IC50/PI3KαIC50)” value (PI3Kα) was “I (“I” represents <5 times)”, the pIC50 (PI3Kα) was > 7.70 and the pIC50 (PI3Kδ) was > 7.70. The pIC50 (MCF7 (PIK3CA mut); [4]) was > 7.70, the pIC50 (KPL4 (PIK3CA mut); [5]) was 6.70 to 7.70 and the pIC50 (SW48 (PIK3CA mut); [6]) was 6.70 to 7.70. For the same molecule, the pIC50 (ZR-75-1 (PTEN loss)) was 6.70 to 7.70.
In the case of COc1c(OCCCN2CCOCC2)ccc2c1N=C(NC(=O)c1cnc(N)nc1)N1CCN=C21 [Copanlisib, reference compound], the pIC50 (MCF7 (PIK3CA mut); MCF7, read-out: MCF7 (PIK3CA mut) proliferation IC50) was > 7.70, the pIC50 (KPL4 (PIK3CA mut); KPL4, read-out: KPL4 (PIK3CA mut) proliferation IC50) was > 7.70 and the pIC50 (SW48 (PIK3CA mut); SW48, read-out: SW48 (PIK3CA mut) proliferation IC50) was > 7.70. The pIC50 (ZR-75-1 (PTEN loss)) was > 7.70, the Vd [1] was 33.5 L/kg and the clearance [1] was 36.7 mL/min/kg. For the same molecule, the half-life [1] was 8.9 h and the volume of distribution [2] was 32.6 L/kg.
In the case of CC[C@H](Nc1ncnc2[nH]cnc12)c1nc2cccc(F)c2c(=O)n1-c1ccccc1 [Idelalisib], the liver side effect [3] is listed as “elevated transaminase”.
